# Legend:
# Homo sapiens [1] = species: Homo sapiens; also: assay method not described here
# Homo sapiens [2] = species: Homo sapiens; remark: listed apart in the source; also: assay method not described here
# [3] = molecular target: Programmed cell death protein 10 (Homo sapiens) (UniProt Q9BUL8); also: assay method not described here
# Homo sapiens [4] = species: Homo sapiens; remark: listed apart in the source; also: assay method not described here
# [5] = molecular target: Rho guanine nucleotide exchange factor 1 (Homo sapiens) (UniProt Q92888); also: assay method not described here
# [6] = molecular target: Periphilin-1 (Homo sapiens) (UniProt Q8NEY8); also: assay method not described here
# Periphilin-1 (Homo sapiens), sequence (Q8NEY8 whole entry, the tested form may be a part): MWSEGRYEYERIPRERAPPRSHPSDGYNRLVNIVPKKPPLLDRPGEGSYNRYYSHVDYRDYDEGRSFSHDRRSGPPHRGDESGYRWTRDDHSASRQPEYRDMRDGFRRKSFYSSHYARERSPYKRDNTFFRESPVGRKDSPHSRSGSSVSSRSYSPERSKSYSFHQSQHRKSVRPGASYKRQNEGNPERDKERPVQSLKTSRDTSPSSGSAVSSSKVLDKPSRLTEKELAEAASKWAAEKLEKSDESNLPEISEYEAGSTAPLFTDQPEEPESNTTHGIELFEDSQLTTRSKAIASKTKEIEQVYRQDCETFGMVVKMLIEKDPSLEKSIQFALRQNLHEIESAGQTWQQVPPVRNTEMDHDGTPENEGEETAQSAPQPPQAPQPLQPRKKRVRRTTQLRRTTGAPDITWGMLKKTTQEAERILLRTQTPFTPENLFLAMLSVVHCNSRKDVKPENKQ
# [7] = molecular target: Mitotic deacetylase-associated SANT domain protein (Homo sapiens) (UniProt Q6PJG2); also: assay method not described here
# [8] = molecular target: Dolichyl-diphosphooligosaccharide--protein glycosyltransferase subunit STT3B (Homo sapiens) (UniProt Q8TCJ2); also: assay method not described here
# [9] = molecular target: Kinesin-like protein KIF2C (Homo sapiens) (UniProt Q99661); also: assay method not described here
# Kinesin-like protein KIF2C (Homo sapiens), sequence (Q99661 whole entry): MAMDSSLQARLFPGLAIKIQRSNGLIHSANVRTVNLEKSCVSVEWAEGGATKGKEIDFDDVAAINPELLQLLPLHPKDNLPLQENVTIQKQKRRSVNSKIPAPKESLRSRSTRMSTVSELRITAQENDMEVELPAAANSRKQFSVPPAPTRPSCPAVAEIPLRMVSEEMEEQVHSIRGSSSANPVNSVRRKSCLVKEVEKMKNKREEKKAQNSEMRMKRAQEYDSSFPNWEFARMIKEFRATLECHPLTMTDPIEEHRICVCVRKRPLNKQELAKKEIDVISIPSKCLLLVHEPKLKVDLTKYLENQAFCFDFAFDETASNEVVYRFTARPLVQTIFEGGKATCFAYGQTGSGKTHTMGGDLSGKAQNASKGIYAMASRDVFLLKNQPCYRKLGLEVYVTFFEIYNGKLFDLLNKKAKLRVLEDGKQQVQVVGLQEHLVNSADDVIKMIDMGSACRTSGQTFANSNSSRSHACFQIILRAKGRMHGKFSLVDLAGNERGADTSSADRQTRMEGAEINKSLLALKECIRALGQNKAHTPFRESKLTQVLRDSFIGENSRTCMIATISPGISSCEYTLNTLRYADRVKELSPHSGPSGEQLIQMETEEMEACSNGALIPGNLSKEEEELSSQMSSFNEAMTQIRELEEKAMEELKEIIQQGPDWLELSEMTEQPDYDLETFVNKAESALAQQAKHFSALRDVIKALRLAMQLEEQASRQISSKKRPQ
# [10] = molecular target: BAG family molecular chaperone regulator 2 (Homo sapiens) (UniProt O95816); also: assay method not described here
# [11] = molecular target: RNA-binding protein Musashi homolog 2 (Homo sapiens) (UniProt Q96DH6); also: assay method not described here
# [12] = molecular target: HLA class I histocompatibility antigen, B alpha chain (Homo sapiens) (UniProt P01889); also: assay method not described here
# HLA class I histocompatibility antigen, B alpha chain (Homo sapiens), sequence (P01889 whole entry): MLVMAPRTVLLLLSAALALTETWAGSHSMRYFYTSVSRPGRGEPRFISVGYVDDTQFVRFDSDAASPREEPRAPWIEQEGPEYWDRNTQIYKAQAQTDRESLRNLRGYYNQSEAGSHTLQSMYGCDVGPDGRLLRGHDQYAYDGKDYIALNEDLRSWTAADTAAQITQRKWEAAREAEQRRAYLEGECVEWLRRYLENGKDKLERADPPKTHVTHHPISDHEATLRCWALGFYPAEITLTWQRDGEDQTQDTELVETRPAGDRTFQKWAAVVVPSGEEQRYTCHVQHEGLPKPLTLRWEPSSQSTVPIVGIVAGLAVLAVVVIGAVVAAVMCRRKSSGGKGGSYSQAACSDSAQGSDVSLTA
# Homo sapiens [13] = species: Homo sapiens; remark: listed apart in the source; also: assay method not described here
# Homo sapiens [14] = species: Homo sapiens; remark: listed apart in the source; also: assay method not described here
# [15] = molecular target: YTH domain-containing family protein 2 (Homo sapiens) (UniProt Q9Y5A9); also: assay method not described here
# [16] = molecular target: Sorting nexin-9 (Homo sapiens) (UniProt Q9Y5X1); also: assay method not described here
# [17] = molecular target: Conserved oligomeric Golgi complex subunit 5 (Homo sapiens) (UniProt Q9UP83); also: assay method not described here
# [18] = molecular target: Echinoderm microtubule-associated protein-like 4 (Homo sapiens) (UniProt Q9HC35); also: assay method not described here
# [19] = molecular target: Translocon-associated protein subunit delta (Homo sapiens) (UniProt P51571); also: assay method not described here
# [20] = molecular target: OCIA domain-containing protein 1 (Homo sapiens) (UniProt Q9NX40); also: assay method not described here
# OCIA domain-containing protein 1 (Homo sapiens), sequence (Q9NX40 whole entry, the tested form may be a part): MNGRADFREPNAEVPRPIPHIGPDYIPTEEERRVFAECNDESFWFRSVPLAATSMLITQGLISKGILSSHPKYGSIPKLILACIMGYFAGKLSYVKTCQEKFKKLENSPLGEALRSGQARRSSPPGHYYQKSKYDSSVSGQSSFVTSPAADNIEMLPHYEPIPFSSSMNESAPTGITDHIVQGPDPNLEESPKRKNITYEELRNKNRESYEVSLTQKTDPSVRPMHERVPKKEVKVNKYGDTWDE
# [21] = molecular target: RNA-binding protein 14 (Homo sapiens) (UniProt Q96PK6); also: assay method not described here
# [22] = molecular target: AP-3 complex subunit delta-1 (Homo sapiens) (UniProt O14617); also: assay method not described here
# [23] = molecular target: Hydroxyacyl-coenzyme A dehydrogenase, mitochondrial (Homo sapiens) (UniProt Q16836); also: assay method not described here
# [24] = molecular target: Membrane-bound glycerophospholipid O-acyltransferase 1 (Homo sapiens) (UniProt Q6ZNC8); also: assay method not described here
# Homo sapiens [25] = species: Homo sapiens; remark: listed apart in the source; also: assay method not described here
# [26] = molecular target: Nascent polypeptide-associated complex subunit alpha (Homo sapiens) (UniProt Q13765); also: assay method not described here
# [27] = molecular target: MAP/microtubule affinity-regulating kinase 4 (Homo sapiens) (UniProt Q96L34); also: assay method not described here
# [28] = molecular target: Protein YIF1A (Homo sapiens) (UniProt O95070); also: assay method not described here
# Protein YIF1A (Homo sapiens), sequence (O95070 whole entry): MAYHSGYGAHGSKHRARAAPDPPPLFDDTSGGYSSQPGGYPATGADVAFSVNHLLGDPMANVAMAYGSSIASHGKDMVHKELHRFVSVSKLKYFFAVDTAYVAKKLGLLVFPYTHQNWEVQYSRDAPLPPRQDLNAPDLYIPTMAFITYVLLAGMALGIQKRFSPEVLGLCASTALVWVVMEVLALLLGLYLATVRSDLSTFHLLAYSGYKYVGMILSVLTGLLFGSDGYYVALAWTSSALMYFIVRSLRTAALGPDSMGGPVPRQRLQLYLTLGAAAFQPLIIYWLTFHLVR
# [29] = molecular target: Syndecan-2 (Homo sapiens) (UniProt P34741); also: assay method not described here
# Syndecan-2 (Homo sapiens), sequence (P34741 whole entry): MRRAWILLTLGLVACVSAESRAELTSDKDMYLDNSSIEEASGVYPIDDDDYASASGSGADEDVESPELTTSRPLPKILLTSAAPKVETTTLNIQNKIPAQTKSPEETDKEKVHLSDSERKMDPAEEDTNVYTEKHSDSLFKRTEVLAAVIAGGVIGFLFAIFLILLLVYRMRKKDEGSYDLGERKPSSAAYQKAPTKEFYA
# [30] = molecular target: Large subunit GTPase 1 homolog (Homo sapiens) (UniProt Q9H089); also: assay method not described here
# Large subunit GTPase 1 homolog (Homo sapiens), sequence (Q9H089 whole entry): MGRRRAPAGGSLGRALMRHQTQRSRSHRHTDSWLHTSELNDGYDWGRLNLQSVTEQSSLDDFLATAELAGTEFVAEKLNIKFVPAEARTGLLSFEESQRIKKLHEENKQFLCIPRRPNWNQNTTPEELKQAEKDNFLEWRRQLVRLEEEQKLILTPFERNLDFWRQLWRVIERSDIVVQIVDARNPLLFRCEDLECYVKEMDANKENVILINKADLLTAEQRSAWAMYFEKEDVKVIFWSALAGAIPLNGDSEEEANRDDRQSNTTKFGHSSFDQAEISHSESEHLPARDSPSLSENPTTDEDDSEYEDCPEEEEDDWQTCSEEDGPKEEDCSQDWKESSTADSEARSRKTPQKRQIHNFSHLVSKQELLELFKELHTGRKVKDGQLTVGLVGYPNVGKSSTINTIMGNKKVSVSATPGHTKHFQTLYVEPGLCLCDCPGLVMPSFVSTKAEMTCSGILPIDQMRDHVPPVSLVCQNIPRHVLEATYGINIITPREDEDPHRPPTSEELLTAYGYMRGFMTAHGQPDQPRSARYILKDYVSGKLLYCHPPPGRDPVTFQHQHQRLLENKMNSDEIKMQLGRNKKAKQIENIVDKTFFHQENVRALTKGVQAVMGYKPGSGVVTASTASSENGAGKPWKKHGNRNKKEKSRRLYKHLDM
# Homo sapiens [31] = species: Homo sapiens; remark: listed apart in the source
# [32] = molecular target: Replication factor C subunit 5 (Homo sapiens) (UniProt P40937); also: assay method not described here
# [33] = molecular target: Ras suppressor protein 1 (Homo sapiens) (UniProt Q15404); also: assay method not described here
# [34] = molecular target: ALK tyrosine kinase receptor (Homo sapiens) (UniProt Q9UM73); also: assay method not described here
# [35] = molecular target: Mitochondrial 2-oxodicarboxylate carrier (Homo sapiens) (UniProt Q9BQT8); also: assay method not described here
# [36] = molecular target: Transaldolase (Homo sapiens) (UniProt P37837); also: assay method not described here
# [37] = molecular target: Histone H1.2 (Homo sapiens) (UniProt P16403); also: assay method not described here
# Histone H1.2 (Homo sapiens), sequence (P16403 whole entry): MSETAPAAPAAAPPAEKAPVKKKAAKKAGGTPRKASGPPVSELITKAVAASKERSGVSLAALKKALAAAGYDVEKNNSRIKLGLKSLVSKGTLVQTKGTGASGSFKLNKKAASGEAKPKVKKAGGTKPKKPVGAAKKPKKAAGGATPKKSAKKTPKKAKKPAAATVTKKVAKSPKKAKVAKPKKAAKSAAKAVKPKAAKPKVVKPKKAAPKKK
# [38] = molecular target: Acyl-CoA dehydrogenase family member 11 (Homo sapiens) (UniProt Q709F0); also: assay method not described here
# [39] = molecular target: Small ribosomal subunit protein eS28 (Homo sapiens) (UniProt P62857); also: assay method not described here
# [40] = molecular target: Solute carrier family 25 member 3 (Homo sapiens) (UniProt Q00325); also: assay method not described here
# [41] = molecular target: Brefeldin A-inhibited guanine nucleotide-exchange protein 1 (Homo sapiens) (UniProt Q9Y6D6); also: assay method not described here
# [42] = molecular target: La-related protein 1 (Homo sapiens) (UniProt Q6PKG0); also: assay method not described here
# [43] = molecular target: Importin-7 (Homo sapiens) (UniProt O95373); also: assay method not described here
# [44] = molecular target: F-actin-capping protein subunit alpha-1 (Homo sapiens) (UniProt P52907); also: assay method not described here
# Ephrin type-A receptor 2 = Ephrin type-A receptor 2 (Homo sapiens, UniProt P29317); experiment: Binding affinity to recombinant human EPHA2 (D596 to G900 residues) expressed in insect cells incubated for 30 mins by MST assay; parameters: species or system Insect cell
# [45] = molecular target: Calcyclin-binding protein (Homo sapiens) (UniProt Q9HB71); also: assay method not described here
# Calcyclin-binding protein (Homo sapiens), sequence (Q9HB71 whole entry): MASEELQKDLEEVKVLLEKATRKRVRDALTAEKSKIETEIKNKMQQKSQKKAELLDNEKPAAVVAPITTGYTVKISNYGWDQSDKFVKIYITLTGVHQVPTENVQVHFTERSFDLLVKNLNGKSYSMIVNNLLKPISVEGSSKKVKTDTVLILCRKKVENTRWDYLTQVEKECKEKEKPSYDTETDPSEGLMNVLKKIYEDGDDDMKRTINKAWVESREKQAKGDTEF
# [46] = molecular target: 14-3-3 protein beta/alpha (Homo sapiens) (UniProt P31946); also: assay method not described here
# 14-3-3 protein beta/alpha (Homo sapiens), sequence (P31946 whole entry): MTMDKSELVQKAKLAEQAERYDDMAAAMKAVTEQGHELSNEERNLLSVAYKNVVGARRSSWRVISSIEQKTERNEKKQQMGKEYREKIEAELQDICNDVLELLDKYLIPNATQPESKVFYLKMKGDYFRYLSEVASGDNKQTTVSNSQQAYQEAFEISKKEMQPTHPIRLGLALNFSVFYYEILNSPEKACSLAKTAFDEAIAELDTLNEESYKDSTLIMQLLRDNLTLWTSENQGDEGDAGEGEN
# [47] = molecular target: NADH dehydrogenase [ubiquinone] 1 alpha subcomplex subunit 13 (Homo sapiens) (UniProt Q9P0J0); also: assay method not described here
# [48] = molecular target: Exportin-1 (Homo sapiens) (UniProt O14980); also: assay method not described here
# Exportin-1 (Homo sapiens), sequence (O14980 whole entry): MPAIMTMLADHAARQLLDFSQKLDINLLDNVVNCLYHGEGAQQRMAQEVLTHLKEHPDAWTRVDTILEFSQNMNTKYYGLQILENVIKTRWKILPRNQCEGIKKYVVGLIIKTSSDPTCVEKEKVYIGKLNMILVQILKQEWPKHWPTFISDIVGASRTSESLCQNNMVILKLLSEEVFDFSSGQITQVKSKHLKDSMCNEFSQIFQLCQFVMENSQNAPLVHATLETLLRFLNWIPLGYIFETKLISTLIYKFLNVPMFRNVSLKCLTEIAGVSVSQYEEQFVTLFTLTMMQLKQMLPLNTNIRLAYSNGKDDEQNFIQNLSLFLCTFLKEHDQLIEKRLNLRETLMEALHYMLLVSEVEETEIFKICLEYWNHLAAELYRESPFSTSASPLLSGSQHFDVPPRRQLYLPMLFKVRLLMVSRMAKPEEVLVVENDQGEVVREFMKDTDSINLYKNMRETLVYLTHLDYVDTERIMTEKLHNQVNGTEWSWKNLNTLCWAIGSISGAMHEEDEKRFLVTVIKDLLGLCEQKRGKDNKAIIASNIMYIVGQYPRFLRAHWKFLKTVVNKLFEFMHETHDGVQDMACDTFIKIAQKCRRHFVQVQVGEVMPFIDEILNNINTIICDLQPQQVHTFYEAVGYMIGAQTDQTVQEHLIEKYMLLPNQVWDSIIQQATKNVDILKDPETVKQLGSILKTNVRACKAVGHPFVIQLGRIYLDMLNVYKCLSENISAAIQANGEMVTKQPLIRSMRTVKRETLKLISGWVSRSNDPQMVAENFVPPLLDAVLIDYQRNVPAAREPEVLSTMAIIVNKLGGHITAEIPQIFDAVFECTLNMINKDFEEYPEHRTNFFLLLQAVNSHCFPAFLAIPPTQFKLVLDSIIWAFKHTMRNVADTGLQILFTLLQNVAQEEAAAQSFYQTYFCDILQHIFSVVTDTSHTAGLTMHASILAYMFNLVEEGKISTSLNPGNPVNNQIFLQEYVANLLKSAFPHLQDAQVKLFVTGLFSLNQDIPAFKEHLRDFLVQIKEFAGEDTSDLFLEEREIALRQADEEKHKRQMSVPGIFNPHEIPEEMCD
# Programmed cell death protein 10 (Homo sapiens), sequence (Q9BUL8 whole entry): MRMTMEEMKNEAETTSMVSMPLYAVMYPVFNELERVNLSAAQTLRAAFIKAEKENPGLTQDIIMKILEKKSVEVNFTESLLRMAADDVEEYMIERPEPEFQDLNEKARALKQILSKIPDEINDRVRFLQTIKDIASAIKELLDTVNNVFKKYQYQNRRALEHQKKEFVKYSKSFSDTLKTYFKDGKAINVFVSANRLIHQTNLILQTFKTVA
compound,measurement,setting,value
Cc1ccc(C(=O)Nc2cccc(C(F)(F)F)c2)cc1Nc1nc(-c2cccnc2)nc2c1cnn2C,ED50,Homo sapiens [1],3.87 µM
same,ED50,Homo sapiens [2],4.42 µM
same,ED50,[3],0.00215 µM
same,ED50,Homo sapiens [4],0.887 µM
same,ED50,[5],1.7 µM
same,ED50,[6],0.336 µM
same,ED50,[7],12.8 µM
same,ED50,[8],0.626 µM
same,ED50,[9],0.02 µM
same,ED50,[10],0.0188 µM
same,ED50,[11],0.00124 µM
same,ED50,[12],0.00982 µM
same,ED50,Homo sapiens [13],1590 µM
same,ED50,Homo sapiens [14],0.723 µM
same,ED50,[15],0.0685 µM
same,ED50,[16],0.494 µM
same,ED50,[17],7.29 µM
same,ED50,[18],0.761 µM
same,ED50,[19],217 µM
same,ED50,[20],0.00604 µM
same,ED50,[21],12.4 µM
same,ED50,[22],0.00584 µM
same,ED50,[23],0.00625 µM
same,ED50,[24],0.9 µM
same,ED50,Homo sapiens [25],0.00171 µM
same,ED50,[26],0.0901 µM
same,ED50,[27],0.0986 µM
same,ED50,[28],0.03 µM
same,ED50,[29],13.6 µM
same,ED50,[30],0.000521 µM
same,ED50,Homo sapiens [31],0.192 µM
same,ED50,[32],0.584 µM
same,ED50,[33],93.4 µM
same,ED50,[34],0.00143 µM
same,ED50,[35],120 µM
Cc1ccc(C(=O)Nc2cccc(C(F)(F)F)c2)cc1Nc1nc(-c2cccnc2)nc2nn(C)cc12,ED50,[36],0.359 µM
same,ED50,[37],0.00894 µM
same,ED50,[38],0.137 µM
same,ED50,[39],0.0595 µM
same,ED50,[40],8.08 µM
same,ED50,[41],0.516 µM
same,ED50,[42],1.69 µM
same,ED50,[43],0.0181 µM
same,ED50,[44],1.49 µM
same,Kd,Ephrin type-A receptor 2,0.073 µM
same,ED50,[45],0.506 µM
same,ED50,[46],0.0807 µM
same,ED50,[47],0.00585 µM
same,ED50,[48],4.43 µM
